Assay results from US7709516B2, “Helix 12 directed non-steroidal antiandrogens” (Endorecherche, Inc., priority 2005, dated 2010).
Read-outs that look alike come from different tables or passages of the source.

Key:
[1] = tested on: rat prostate, seminal vesicle, levator ani muscle; assay: Systemic antiandrogenic activity in orchidectomized immature male rats with DHT implant; assay type: in vivo; settings: Rattus norvegicus, 168 h, rat +DHT, 0.5 mg/animal daily 7 days
Human Androgen Receptor = molecular target: T1, Human Androgen Receptor (Homo sapiens, UniProt P10275); assay: Androgen receptor binding assay ([3H]R1881, HAP) in cytosol of HEK-293 cells transfected with hAR; settings: Table 1; relative to R1881 = 100, transfected cells
T1 sequence (P10275 1-920): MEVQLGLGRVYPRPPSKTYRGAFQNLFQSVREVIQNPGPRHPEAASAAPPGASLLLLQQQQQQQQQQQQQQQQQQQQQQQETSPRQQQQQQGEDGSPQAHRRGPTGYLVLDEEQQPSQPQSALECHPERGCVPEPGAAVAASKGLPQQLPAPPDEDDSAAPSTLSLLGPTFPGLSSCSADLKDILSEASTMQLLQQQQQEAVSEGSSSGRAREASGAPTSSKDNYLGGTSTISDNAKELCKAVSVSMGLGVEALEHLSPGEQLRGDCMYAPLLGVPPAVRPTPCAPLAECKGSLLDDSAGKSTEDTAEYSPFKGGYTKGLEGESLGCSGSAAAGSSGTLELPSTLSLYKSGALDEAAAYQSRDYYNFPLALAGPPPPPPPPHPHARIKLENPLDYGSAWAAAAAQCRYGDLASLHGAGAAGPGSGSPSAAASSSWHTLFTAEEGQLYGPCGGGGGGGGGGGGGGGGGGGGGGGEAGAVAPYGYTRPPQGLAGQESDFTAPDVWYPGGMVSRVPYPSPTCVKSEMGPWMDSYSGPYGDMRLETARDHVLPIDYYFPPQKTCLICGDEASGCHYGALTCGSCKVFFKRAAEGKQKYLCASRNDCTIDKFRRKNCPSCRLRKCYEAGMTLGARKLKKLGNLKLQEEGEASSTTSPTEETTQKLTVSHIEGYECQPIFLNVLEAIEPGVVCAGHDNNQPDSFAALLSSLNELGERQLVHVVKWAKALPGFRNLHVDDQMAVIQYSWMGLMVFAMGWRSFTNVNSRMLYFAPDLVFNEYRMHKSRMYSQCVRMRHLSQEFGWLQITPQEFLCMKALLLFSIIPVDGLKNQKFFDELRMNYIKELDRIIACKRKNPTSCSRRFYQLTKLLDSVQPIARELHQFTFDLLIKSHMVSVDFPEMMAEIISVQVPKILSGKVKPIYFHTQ

[2] = tested on: Shionogi mouse mammary carcinoma cells; assay: Androgenic/antiandrogenic activity: inhibition of DHT-stimulated Shionogi cell number; assay type: cell-based; settings: Mus musculus, DHT-stimulated Shionogi cell number
[3] = read-out: Lev Ani % inhibition, Table 1, s.c. or p.o. (route not marked), levator ani
[4] = read-out: Prostate % inhibition, Table 1, s.c. or p.o. (route not marked in cell)
[5] = read-out: SV % inhibition, Table 1, s.c. or p.o. (route not marked), seminal vesicle
[6] = read-out: Shionogi Antiandrogenic Activity IC50, Table 1

| Compound | inhibition in vivo at 0.5 mg [1, 3] | inhibition in vivo at 0.5 mg [1, 4] | inhibition in vivo at 0.5 mg [1, 5] | Human Androgen Receptor Binding (%) RBA R1881 = 100 (Human Androgen Receptor) | IC50 [2, 6] | IC50 ([2]; Table 1, read-out: Shionogi Antiandrogenic Activity IC50) |
| --- | --- | --- | --- | --- | --- | --- |
| CC(C)N(C)Cc1ccc(OCCCN2C(=S)N(c3ccc(C#N)c(C(F)(F)F)c3)C(=O)C2(C)C)cc1 [EM-7233] | 70% | 54% | 82% | 15.0% | 12 nM | – |
| CC(C)NC(C)c1ccc(OCCCN2C(=S)N(c3ccc(C#N)c(C(F)(F)F)c3)C(=O)C2(C)C)cc1 (stereo not drawn) [EM-7234, 4-(3-{3-[4-(1-Isopropylamino-ethyl)-phenoxy]-propyl}-4,4-dimethyl-5-oxo-2-thioxo-imidazolidin-1-yl)-2-tifluoromethyl-benzonitile] | 75% | 50% | 82% | 30.4% | 6.2 nM | – |
| CCN(C)Cc1ccc(OCCCN2C(=S)N(c3ccc(C#N)c(C(F)(F)F)c3)C(=O)C2(C)C)cc1 [EM-7242] | 55% | 41% | 72% | 18.0% | 9.8 nM | – |
| CC(c1ccc(OCCCN2C(=S)N(c3ccc(C#N)c(C(F)(F)F)c3)C(=O)C2(C)C)cc1)N(C)C (stereo not drawn) [EM-7243] | 73% | 34% | 72% | 14.0% | 14 nM | – |
| CC1(C)C(=O)N(c2ccc(C#N)c(C(F)(F)F)c2)C(=S)N1CCCOc1ccc(CN2CCOCC2)cc1 [EM-7248] | 44% | 37% | 62% | 32.4% | 19 nM | – |
| COC(=O)c1ccc(OCCCN2C(=S)N(c3ccc(C#N)c(C(F)(F)F)c3)C(=O)C2(C)C)cc1 [EM-7260] | 0% | 25% | 47% | 93.3% | 17 nM | – |
| Cc1cc(CNC(C)C)ccc1OCCCN1C(=S)N(c2ccc(C#N)c(C(F)(F)F)c2)C(=O)C1(C)C [EM-7297] | 31% | 29% | 37% | 59.0% | 6.3 nM | – |
| CN(C)Cc1ccc(OCCCN2C(=O)N(c3ccc(C#N)c(C(F)(F)F)c3)C(=O)C2(C)C)cc1 [EM-7334, 4-{3-[3-(4-Dimethylaminomethyl-phenoxy)-propyl]-4,4-dimethyl-2,5-dioxo-imidazolidin-1-yl}-2-trifluoromethyl-benzonitrile] | – | 14% | 26% | 0.5% | – | 118 nM |
| CC1(C)C(=O)N(c2ccc(C#N)c(C(F)(F)F)c2)C(=S)N1CCCOc1ccc(CN2CCC(O)C2)cc1 (stereo not drawn) [EM-7365] | 19% | 22% | 43% | 24.0% | 6 nM | – |
| Cc1cc(CN2CCOCC2)ccc1OCCCN1C(=S)N(c2ccc(C#N)c(C(F)(F)F)c2)C(=O)C1(C)C [EM-7366] | 16% | 26% | 70% | 209.0% | 22 nM | – |
| CC1(C)C(=O)N(c2ccc(C#N)c(C(F)(F)F)c2)C(=S)N1CCCOc1ccc(CN2CCC(=O)C2)cc1 [EM-7371] | 21% | 16% | 48% | 53.0% | 15 nM | – |
